According to patent US8158668B2, “Methods for treating CNS disorders with 4-imidazole derivatives” (Hoffmann-La Roche Inc., priority 2006, dated 2012):
Where two headings read alike, the source gives them in different places.

Biological target: T1, mouseTAAR1 (Mus musculus, UniProt Q923Y8)
T1 construct: expressed in transfected cells; host or cells: HEK293 (ATCC #CRL-1573), stably transfected with pIRESneo2 expression plasmid; membrane preparation
Assay: Radioligand binding on membranes of HEK293 cells stably expressing TAAR1
Experimental: For the construction of expression plasmids the coding sequences of human, rat and mouse TAAR 1 were amplified from genomic DNA essentially as described by Lindemann et al.. The Expand High Fidelity PCR System (Roche Diagnostics) was used with 1.5 mM Mg^2+ and purified PCR products were cloned into pCR2.1-TOPO cloning vector (Invitrogen) following the instructions of the manufacturer. PCR products were subcloned into the pIRESneo2 vector (BD Clontech, Palo Alto, Calif.), and expression vectors were sequence verified before introduction in cell lines.
For the generation of stably transfected cell lines HEK293 cells were transfected with the pIRESneo2 expression plasmids containing the TAAR coding sequences (described above) with Lipofectamine 2000 (Invitrogen) according to the instructions of the manufacturer, and 24 hrs post transfection the culture medium was supplemented with 1 mg/ml G418 (Sigma, Buchs, Switzerland). After a culture period of about 10 d clones were isolated, expanded and tested for responsiveness to trace amines (all compounds purchased from Sigma) with the cAMP Biotrak Enzyme immunoassay (EIA) System (Amersham) following the non-acetylation EIA procedure provided by the manufacturer.
Cells at confluence were rinsed with ice-cold phosphate buffered saline without Ca^2+ and Mg^2+ containing 10 mM EDTA and pelleted by centrifugation at 1000 rpm for 5 min at 4° C. The pellet was then washed twice with ice-cold phosphate buffered saline and cell pellet was frozen immediately by immersion in liquid nitrogen and stored until use at −80° C. Cell pellet was then suspended in 20 ml HEPES-NaOH (20 mM), pH 7.4 containing 10 mM EDTA, and homogenized with a Polytron (PT 3000, Kinematica) at 10,000 rpm for 10 s. The homogenate was centrifuged at 48,000×g for 30 min at 4° C. and the pellet resuspended in 20 ml HEPES-NaOH (20 mM), pH 7.4 containing 0.1 mM EDTA (buffer A), and homogenized with a Polytron at 10,000 rpm for 10 s. The homogenate was then centrifuged at 48,000×g for 30 min at 4° C. and the pellet resuspended in 20 ml buffer A, and homogenized with a Polytron at 10,000 rpm for 10 s. Protein concentration was determined by the method of Pierce (Rockford, Ill.). The homogenate was then centrifuged at 48,000×g for 10 min at 4° C., resuspended in HEPES-NaOH (20 mM), pH 7.0 including MgCl2 (10 mM) and […] homogenized with a Polytron at 10,000 rpm for 10 s.
Binding assay was performed at 4° C. in a final volume of 1 ml, and with an incubation time of 30 min. […] Competing ligands were tested in a wide range of concentrations (10 pM-30 μM). […] Each experiment was performed in duplicate. All incubations were terminated by rapid filtration through UniFilter-96 plates (Packard Instrument Company) and glass filter GF/C, pre-soaked for at least 2 h in polyethylenimine 0.3%, and using a Filtermate 96 Cell Harvester (Packard Instrument Company). The tubes and filters were then washed 3 times with 1 ml aliquots of cold buffer B. Filters were not dried and soaked in Ultima gold (45 μl/well, Packard Instrument Company) and bound radioactivity was counted by a TopCount Microplate Scintillation Counter (Packard Instrument Company).

[1] = mouseTAAR1, competition with [3H]-rac-2-(1,2,3,4-tetrahydro-1-naphthyl)-2-imidazoline, 4° C., 30 min, read-out: Ki

T1 sequence (Q923Y8 whole entry): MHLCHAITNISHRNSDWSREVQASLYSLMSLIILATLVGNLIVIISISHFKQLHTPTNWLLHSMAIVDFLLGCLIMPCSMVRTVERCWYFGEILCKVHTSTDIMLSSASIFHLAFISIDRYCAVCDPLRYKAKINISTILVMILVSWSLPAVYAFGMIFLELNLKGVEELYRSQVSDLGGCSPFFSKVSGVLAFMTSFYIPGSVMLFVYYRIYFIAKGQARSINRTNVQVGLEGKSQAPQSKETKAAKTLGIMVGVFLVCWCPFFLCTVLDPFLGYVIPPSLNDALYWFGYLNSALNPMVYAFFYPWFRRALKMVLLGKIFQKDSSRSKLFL

Structure (SMILES) | Ki | Ki [1]
CCCC(c1ccccc1)c1c[nH]cn1 (racemic) [Example 1, rac-4-(1-Phenyl-butyl)-1H-imidazole] | 0.049 µM | 
CC(c1cnc[nH]1)c1ccccc1F (racemic) [Example 2, rac-4-[1-(2-Fluoro-phenyl)-ethyl]-1H-imidazole] | 0.012 µM | 
CCC(c1cc(F)cc(F)c1)c1cnc[nH]1 (racemic) [Example 4, rac-4-[1-(3,5-Difluoro-phenyl)-propyl]-1H-imidazole] | 0.028 µM | 
CCC(c1ccccc1)c1cnc[nH]1 (racemic) [Example 5, rac-4-(1-Phenyl-propyl)-1H-imidazole] | 0.036 µM | 
CCC(c1cnc[nH]1)c1ccccc1F (racemic) [Example 6, rac-4-[1-(2-Fluoro-phenyl)-propyl]-1H-imidazole] | 0.022 µM | 
CCC(c1cccc(F)c1)c1cnc[nH]1 (racemic) [Example 7, rac-4-[1-(3-Fluoro-phenyl)-propyl]-1H-imidazole] | 0.032 µM | 
CC(c1ccccc1)c1cnc[nH]1 (racemic) [Example 14, rac-4-(1-Phenyl-ethyl)-1H-imidazole] | 0.004 µM | 
CC(c1cccc(F)c1)c1cnc[nH]1 (racemic) [Example 15, rac-4-[1-(3-Fluoro-phenyl)-ethyl]-1H-imidazole] | 0.019 µM | 
CC(c1cnc[nH]1)c1cccc(F)c1F (racemic) [Example 17, rac-4-[1-(2,3-Difluoro-phenyl)-ethyl]-1H-imidazole] | 0.011 µM | 
CCC(c1cnc[nH]1)c1cccc(F)c1F (racemic) [Example 20, rac-4-[1-(2,3-Difluoro-phenyl)-propyl]-1H-imidazole] | 0.018 µM | 
CC(c1c[nH]cn1)c1cccc2ccccc12 (racemic) [Example 40, rac-4-(1-Naphthalen-1-yl-ethyl)-1H-imidazole] | 0.003 µM | 
Fc1cccc(Cl)c1Cc1cnc[nH]1 [Example 12, 4-(2-Chloro-6-fluoro-benzyl)-1H-imidazole] | 0.019 µM | 
Cc1cccc(Cc2c[nH]cn2)c1C [Example 25, 4-(2,3-Dimethyl-benzyl)-1H-imidazole, reference compound] |  | 0.043 µM
CCc1cccc(CC)c1Cc1cnc[nH]1 [Example 26, 4-(2,6-Diethyl-benzyl)-1H-imidazole] | 0.01 µM | 
Brc1ccccc1Cc1cnc[nH]1 [Example 27, 4-(2-Bromo-benzyl)-1H-imidazole] | 0.034 µM | 
Cc1cccc(C)c1Cc1cnc[nH]1 [Example 29, 4-(2,6-Dimethyl-benzyl)-1H-imidazole] | 0.004 µM | 
Cc1cc(C)c(C)c(Cc2cnc[nH]2)c1C [Example 31, 4-(2,3,5,6-Tetramethyl-benzyl)-1H-imidazole] | 0.016 µM | 
Clc1cccc(Cl)c1Cc1cnc[nH]1 [Example 33, 4-(2,6-Dichloro-benzyl)-1H-imidazole] | 0.003 µM | 
c1ccc2cc(Cc3c[nH]cn3)ccc2c1 [Example 39, 4-Naphthalen-2-ylmethyl-1H-imidazole] | 0.029 µM | 
CC(C)(c1ccccc1)c1cnc[nH]1 [Example 41, 5-(1-methyl-1-phenyl-ethyl)-1H-imidazole trifluoro-acetate] | 0.0461 µM | 

Structure (SMILES) | Ki | Ki [1]
C[C@@H](c1cnc[nH]1)c1cccc(F)c1F [Example 46, 4-[(R)-1-(2,3-Difluoro-phenyl)-ethyl]-1H-imidazole] | 0.0078 µM | 
Brc1cc(Cc2c[nH]cn2)c2occc2c1 [Example 49, 4-(5-Bromo-benzofuran-7-ylmethyl)-1-imidazole] | 0.0009 µM | 
c1cc2c(c(Cc3cnc[nH]3)c1)OCC2 [Example 50, 4-(2,3-Dihydro-benzofuran-7-ylmethyl)-1-imidazole] | 0.0202 µM | 
c1cc(Cc2cnc[nH]2)c2occc2c1 [Example 51, 4-Benzofuran-7-ylmethyl-1-imidazole] | 0.0093 µM | 
CCc1cccc(C)c1Cc1cnc[nH]1 [Example 57, 4-(2-Ethyl-6-methyl-benzyl)-1H-imidazole] | 0.0108 µM | 
CCc1cccc(C2CC2)c1Cc1cnc[nH]1 [Example 58, 4-(2-Cyclopropyl-6-ethyl-benzyl)-1H-imidazole] | 0.0098 µM | 
Clc1ccc(Oc2cccc(Cc3cnc[nH]3)c2)cc1 [Example 60, 4-[3-(4-Chloro-phenoxy)-benzyl]-1H-imidazole] | 0.0276 µM | 
CCc1cccc(Cl)c1Cc1cnc[nH]1 [Example 61, 4-(2-Chloro-6-ethyl-benzyl)-1H-imidazole] | 0.0115 µM | 
c1ccc(-c2ccccc2Cc2cnc[nH]2)cc1 [Example 67, 4-Biphenyl-2-ylmethyl-1H-imidazole] | 0.0276 µM | 
CCc1cc(OC)cc(CC)c1Cc1cnc[nH]1 [Example 69, 4-(2,6-Diethyl-4-methoxy-benzyl)-1H-imidazole] | 0.0026 µM | 
CCc1ccc(OC)c(CC)c1Cc1cnc[nH]1 [Example 70, 4-(2,6-Diethyl-3-methoxy-benzyl)-1H-imidazole] | 0.0038 µM | 
c1ccc(-c2cccc(Cc3cnc[nH]3)c2)cc1 [Example 71, 4-Biphenyl-3-ylmethyl-1H-imidazole] | 0.0391 µM | 
CCOc1cc(CC)c(Cc2cnc[nH]2)c(CC)c1 [Example 72, 4-(4-Ethoxy-2,6-diethyl-benzyl)-1H-imidazole] | 0.0127 µM | 
CCc1cc(OCc2ccccc2)cc(CC)c1Cc1cnc[nH]1 [Example 73, 4-(4-Benzyloxy-2,6-diethyl-benzyl)-1H-imidazole] |  | 0.0117 µM
CCOc1ccc(CC)c(Cc2cnc[nH]2)c1CC [Example 74, 4-(3-Ethoxy-2,6-diethyl-benzyl)-1H-imidazole] | 0.0037 µM | 
CCc1cccc(F)c1Cc1cnc[nH]1 [Example 78, 4-(2-Ethyl-6-fluoro-benzyl)-1H-imidazole] | 0.0179 µM | 
CCc1cc(Oc2ccccc2)cc(CC)c1Cc1cnc[nH]1 [Example 79, 4-(2,6-Diethyl-4-phenoxy-benzyl)-1H-imidazole] | 0.0056 µM | 
CCc1ccc(Oc2ccccc2)c(CC)c1Cc1cnc[nH]1 [Example 80, 4-(2,6-Diethyl-3-phenoxy-benzyl)-1H-imidazole] | 0.0139 µM | 
Cc1ccc2ccccc2c1Cc1cnc[nH]1 [Example 572, 4-(2-Methyl-naphthalen-1-ylmethyl)-1H-imidazole] | 0.0056 µM | 
